Test results published in patent publication US12296053B2, “Nanomaterials comprising triols” (Beam Therapeutics Inc., priority 2022, dated 2025).

Columns and labels:
[1] = LNP hydrodynamic diameter and polydispersity index by dynamic light scattering (DLS); format: physicochemical; settings: for Diameter (nm): hydrodynamic diameter of the LNP preparation with the ionizable lipid; for PDI: polydispersity index of the LNP preparation with the ionizable lipid
Experimental: (§1) A 3:1 ratio of aqueous to organic solvent was maintained during mixing using differential flow rates. After mixing, LNP preparations were collected and diluted in TBS (approximately 7:1 v/v), and further buffer exchange was conducted using dialysis in TBS at 4° C. for 8 to 24 hours against a 20 kDa filter. After this initial dialysis, each individual LNP preparation was characterized via dynamic light scattering (DLS) to measure size and polydispersity. pKa of a subpopulation of LNP preparations was measured via TNS assay.
DLS-LNP preparation hydrodynamic diameter and polydispersity index (PDI) was measured using high throughput dynamic light scattering (DLS) (DynaPro plate reader II, Wyatt). LNP preparations were diluted 1×PBS to an appropriate concentration and analyzed.

[2] = Encapsulation efficiency of LNP preparations (Ribogreen assay; Qubit, unlysed and lysed LNPs); format: physicochemical; settings: LNP preparation with the ionizable lipid, ABE mRNA:sgRNA 1:1, except 7-1, 7-2, 7-6, 7-10 (unlysed and lysed LNPs, Qubit)
Experimental: (§2) Lipid nanoparticle components were dissolved in 100% ethanol at specified lipid component molar ratios. mRNA encoding an adenine base editor and a chemically-modified sgRNA was dissolved at a mass ratio of 1:1 in 50 mM citrate, pH 4.0, resulting in a concentration of NA cargo of approximately 0.1 mg/mL.
(§3) LNP preparations were formulated with molar ratios of 47.5% Ionizable Lipid: 40% Cholesterol: 2.5% PEG2000-DMG: 10% DSPC total lipid to NA molar ratio of 6 to 12.
(§4) LNP preparations were formed by microfluidic mixing of the lipid and NA solutions using Precision Nanosystems NanoAssemblr Ignite series Instruments, according to the manufacturer's protocol.
With the exception of LNPs comprising ionizable lipids 7-1, 7-2, 7-6, and 7-10, RNA concentration and encapsulation efficiency were determined by Ribogreen assay (BioTek Synergy LX plate reader). For LNPs comprising ionizable lipids 7-1, 7-2, 7-6, and 7-10, RNA concentration was determined by Qubit microRNA kit (for siRNA) or HS RNA kit (for mRNA) per manufacturer's instructions, and encapsulation efficiency was determined by measuring unlysed and lysed LNPs.

[3] = system: ALAS1 target site; test: Base editing in liver by LNP-delivered ABE mRNA and sgRNA, targeted deep sequencing; format: in vivo; settings: LNP with the ionizable lipid, ABE mRNA + sgRNA targeting ALAS1 1:1; tail vein injection, Balb/c mice; 0.05 mg/kg; tissues four to six days post-dose
Experimental: as §2, §3, §4, §1
Male Balb/C mice aged approximately 8-12 weeks were used in the experiments described herein. […]
Age-matched mice were also used to administer vehicle (1×TBS) via tail vein injection as a control. Four to six days post-dose, tissues including liver, spleen, and bone marrow were collected. Base editing was determined by performing targeted deep sequencing analysis at the ALAS1 target site using extracted genomic DNA. Genomic DNA was isolated and fragmented and adapter-ligated using the Nextera DNA Flex Library Prep Kit (Illumina) using the 96-well plate Nextera indexing primers (Illumina), according to the manufacturer's instructions. Library size and concentration was confirmed by Fragment Analyzer (Agilent) and analyzed for whole genome sequencing using an Illumina HiSeq.

Structure (SMILES) | Diameter (nm) [1] [nm] | PDI [1] | Encapsulation Efficiency (%) [2] [%] | % Editing in Liver (0.05 mpk) [3] [%]
CCCCC/C=C\C/C=C\CCCCCCCC(=O)OCC(COC(=O)CCC(CCCCCC)OC(=O)NCCN1CCCC1)COC(=O)CCC(OCCCCCCCC)OCCCCCCCC (centres unmarked) [Compound 7-1, 3-((4,4-bis(octyloxy)butanoyl)oxy)-2-(((4-(((2-(pyrrolidin-1-yl)ethyl)carbamoyl)oxy)decanoyl)oxy)methyl)propyl (9Z,12Z)-octadeca-9,12-dienoate] | 64.70 | 0.14 | 97.5 | 
CC/C=C\CCCCOC(CCC(=O)OCC(COC(=O)CCCCCCC/C=C\C/C=C\CCCCC)COC(=O)CCC(CCCCCC)OC(=O)NCCN1CCCC1)OCCCC/C=C\CC (centres unmarked) [Compound 7-2, 3-((4,4-bis(((Z)-oct-5-en-1-yl)oxy)butanoyl)oxy)-2-(((4-(((2-(pyrrolidin-1-yl)ethyl)carbamoyl)oxy)decanoyl)oxy)methyl)propyl (9Z,12Z)-octadeca-9,12-dienoate] | 43.80 | 0.04 | 97.8 | 
CC/C=C\CCCCOC(CCC(=O)OCC(COC(=O)CCCCCCC/C=C\C/C=C\CCCCC)COC(=O)CCC(CCCCCC)OC(=O)OCCCN(C)C)OCCCC/C=C\CC (centres unmarked) [Compound 7-3, 15-(((4,4-bis(((Z)-oct-5-en-1-yl)oxy)butanoyl)oxy)methyl)-9-hexyl-2-methyl-7,12-dioxo-6,8,13-trioxa-2-azahexadecan-16-yl (9Z,12Z)-octadeca-9,12-dienoate] | 85.72 | 0.72 | 19.8 | 
CC/C=C\CCCCOC(CCC(=O)OCC(COC(=O)CCCCCCC/C=C\C/C=C\CCCCC)COC(=O)OCC(CCCCCC)OC(=O)NCCN1CCCC1)OCCCC/C=C\CC (centres unmarked) [Compound 7-5, 12-(((4,4-bis(((Z)-oct-5-en-1-yl)oxy)butanoyl)oxy)methyl)-6-hexyl-4,9-dioxo-1-(pyrrolidin-1-yl)-5,8,10-trioxa-3-azatridecan-13-yl (9Z,12Z)-octadeca-9,12-dienoate] | 78.39 | 0.09 | 87.2 | 
CC/C=C\CCCCOC(CCC(=O)OCC(COC(=O)CCCCCCCOC(=O)C(CCCC)CCCCCC)COC(=O)CCC(CCCCCC)OC(=O)NCCN1CCCC1)OCCCC/C=C\CC (centres unmarked) [Compound 7-6, 3-((4,4-bis(((Z)-oct-5-en-1-yl)oxy)butanoyl)oxy)-2-(((8-((2-butyloctanoyl)oxy)octanoyl)oxy)methyl)propyl 4-(((2-(pyrrolidin-1-yl)ethyl)carbamoyl)oxy)decanoate] | 85.01 | 0.08 | 91.3 | 
CC/C=C\CCCCOC(CCC(=O)OCC(COC(=O)CCCCCCOC(=O)C(CCCC)CCCCCC)COC(=O)CCC(CCCCCC)OC(=O)NCCN1CCCC1)OCCCC/C=C\CC (centres unmarked) [Compound 7-7, 3-((4,4-bis(((Z)-oct-5-en-1-yl)oxy)butanoyl)oxy)-2-(((7-((2-butyloctanoyl)oxy)heptanoyl)oxy)methyl)propyl 4-(((2-(pyrrolidin-1-yl)ethyl)carbamoyl)oxy)decanoate] | 66.85 | 0.06 | 95.0 | 
CC/C=C\CCCCOC(CCC(=O)OCC(COC(=O)CCCCCCCOC(=O)C(CCCC)CCCCCC)COC(=O)OCC(CCCCCC)OC(=O)NCCN1CCCC1)OCCCC/C=C\CC (centres unmarked) [Compound 7-8, 12-(((4,4-bis(((Z)-oct-5-en-1-yl)oxy)butanoyl)oxy)methyl)-6-hexyl-4,9,15-trioxo-1-(pyrrolidin-1-yl)-5,8,10,14-tetraoxa-3-azadocosan-22-yl 2-butyloctanoate] | 62.8 | 0.07 | 95.5 | 14.8
CC/C=C\CCCCOC(CCC(=O)OCC(COC(=O)CCCCCCC/C=C\C/C=C\CCCCC)COC(=O)CCC(CCCCCC)OC(=O)OCCCN(CC)CC)OCCCC/C=C\CC (centres unmarked) [Compound 7-10, 16-(((4,4-bis(((Z)-oct-5-en-1-yl)oxy)butanoyl)oxy)methyl)-3-ethyl-10-hexyl-8,13-dioxo-7,9,14-trioxa-3-azaheptadecan-17-yl (9Z,12Z)-octadeca-9,12-dienoate] | 76.95 | 0.09 | 88.2 | 
CCCCCCCCOC(CCC(=O)OCC(COC(=O)CCCCCCOC(=O)C(CCCC)CCCCCC)COC(=O)CCC(CCCCCC)OC(=O)NCCN1CCCC1)OCCCCCCCC (centres unmarked) [Compound 7-11, 3-((4,4-bis(octyloxy)butanoyl)oxy)-2-(((7-((2-butyloctanoyl)oxy)heptanoyl)oxy)methyl)propyl 4-(((2-(pyrrolidin-1-yl)ethyl)carbamoyl)oxy)decanoate] | 68.00 | 0.10 | 99.1 | 13.2
CC/C=C\CCCCOC(CCC(=O)OCC(COC(=O)CCCCCCOC(=O)C(CCCC)CCCCCC)COC(=O)CCC(CC)OC(=O)NCCN1CCCC1)OCCCC/C=C\CC (centres unmarked) [Compound 7-20, 12-(((4,4-bis(((Z)-oct-5-en-1-yl)oxy)butanoyl)oxy)methyl)-6-ethyl-4,9,15-trioxo-1-(pyrrolidin-1-yl)-5,10,14-trioxa-3-azahenicosan-21-yl 2-butyloctanoate] | 84.26 | 0.06 | 99.4 | 
CC/C=C\CCCCOC(CCC(=O)OCC(COC(=O)CCCCCCOC(=O)C(CCCC)CCCCCC)COC(=O)CCC(CCC)OC(=O)NCCN1CCCC1)OCCCC/C=C\CC (centres unmarked) [Compound 7-21, 12-(((4,4-bis(((Z)-oct-5-en-1-yl)oxy)butanoyl)oxy)methyl)-4,9,15-trioxo-6-propyl-1-(pyrrolidin-1-yl)-5,10,14-trioxa-3-azahenicosan-21-yl 2-butyloctanoate] | 83.43 | 0.03 | 99.2 | 
CC/C=C\CCCCOC(CCC(=O)OCC(COC(=O)CCCCCC(=O)OCCC(CCCCC)CCCCC)COC(=O)CCC(CC)OC(=O)NCCN1CCCC1)OCCCC/C=C\CC (centres unmarked) [Compound 7-24, 1-(3-((4,4-bis(((Z)-oct-5-en-1-yl)oxy)butanoyl)oxy)-2-(((4-(((2-(pyrrolidin-1-yl)ethyl)carbamoyl)oxy)hexanoyl)oxy)methyl)propyl) 7-(3-pentyloctyl) heptanedioate] | 84.01 | 0.09 | 85.9 | 
CC/C=C\CCCCOC(CCC(=O)OCC(COC(=O)CCCCCC(=O)OCCC(CCCCC)CCCCC)COC(=O)CCC(CCCC)OC(=O)NCCN1CCCC1)OCCCC/C=C\CC (centres unmarked) [Compound 7-26, 1-(3-((4,4-bis(((Z)-oct-5-en-1-yl)oxy)butanoyl)oxy)-2-(((4-(((2-(pyrrolidin-1-yl)ethyl)carbamoyl)oxy)octanoyl)oxy)methyl)propyl) 7-(3-pentyloctyl) heptanedioate] | 60.05 | 0.11 | 98.5 | 
CC/C=C\CCCCOC(CCC(=O)OCC(COC(=O)CCCCCCOC(=O)C(CCCC)CCCCCC)COC(=O)CCC(C)OC(=O)NCCN1CCCC1)OCCCC/C=C\CC (centres unmarked) [Compound 7-28, 12-(((4,4-bis(((Z)-oct-5-en-1-yl)oxy)butanoyl)oxy)methyl)-6-methyl-4,9,15-trioxo-1-(pyrrolidin-1-yl)-5,10,14-trioxa-3-azahenicosan-21-yl 2-butyloctanoate] | 74.80 | 0.09 | 99.2 | 
CC/C=C\CCCCOC(CCC(=O)OCC(COC(=O)CCCCCCOC(=O)C(CCCC)CCCCCC)COC(=O)CCC(CCCCCC)OC(=O)NCCN(C)CC)OCCCC/C=C\CC (centres unmarked) [Compound 7-43, 3-((4,4-bis(((Z)-oct-5-en-1-yl)oxy)butanoyl)oxy)-2-(((7-((2-butyloctanoyl)oxy)heptanoyl)oxy)methyl)propyl 4-(((2-(ethyl(methyl)amino)ethyl)carbamoyl)oxy)decanoate] | 114.2 | 0.11 | 89.2 | 
